Laboratory results taken from patent publication US9682995B2, “Amino-substituted isothiazoles” (BAYER PHARMA AKTIENGESELLSCHAFT, priority 2013, dated 2017).

Experiments:
Experiment in all cases: Kinase Profiling (KINOMEscan)
Assay type in all cases: binding
[1] = target: 456 kinases (of these 395 non-mutant kinases) (Homo sapiens, UniProt O15530); conditions: PDPK1; 10 μM
[2] = target: 456 kinases (of these 395 non-mutant kinases) (Homo sapiens, UniProt O96013); conditions: PAK4; 10 μM
[3] = target: 456 kinases (of these 395 non-mutant kinases) (Homo sapiens, UniProt P00519, E255K); conditions: ABL1(E255K)-phosphorylated; 10 μM
[4] = target: 456 kinases (of these 395 non-mutant kinases) (Homo sapiens, UniProt P00533, DEL746-750); conditions: EGFR(E746-A750del); 10 μM
[5] = target: 456 kinases (of these 395 non-mutant kinases) (Homo sapiens, UniProt P00533, L858R); conditions: EGFR(L858R); 10 μM
[6] = target: 456 kinases (of these 395 non-mutant kinases) (Homo sapiens, UniProt P07949, V804L); conditions: RET(V804L); 10 μM
Chain of 456 kinases (of these 395 non-mutant kinases) (Homo sapiens, UniProt P07949, V804L) (P07949 29-1114 V804L limits assumed): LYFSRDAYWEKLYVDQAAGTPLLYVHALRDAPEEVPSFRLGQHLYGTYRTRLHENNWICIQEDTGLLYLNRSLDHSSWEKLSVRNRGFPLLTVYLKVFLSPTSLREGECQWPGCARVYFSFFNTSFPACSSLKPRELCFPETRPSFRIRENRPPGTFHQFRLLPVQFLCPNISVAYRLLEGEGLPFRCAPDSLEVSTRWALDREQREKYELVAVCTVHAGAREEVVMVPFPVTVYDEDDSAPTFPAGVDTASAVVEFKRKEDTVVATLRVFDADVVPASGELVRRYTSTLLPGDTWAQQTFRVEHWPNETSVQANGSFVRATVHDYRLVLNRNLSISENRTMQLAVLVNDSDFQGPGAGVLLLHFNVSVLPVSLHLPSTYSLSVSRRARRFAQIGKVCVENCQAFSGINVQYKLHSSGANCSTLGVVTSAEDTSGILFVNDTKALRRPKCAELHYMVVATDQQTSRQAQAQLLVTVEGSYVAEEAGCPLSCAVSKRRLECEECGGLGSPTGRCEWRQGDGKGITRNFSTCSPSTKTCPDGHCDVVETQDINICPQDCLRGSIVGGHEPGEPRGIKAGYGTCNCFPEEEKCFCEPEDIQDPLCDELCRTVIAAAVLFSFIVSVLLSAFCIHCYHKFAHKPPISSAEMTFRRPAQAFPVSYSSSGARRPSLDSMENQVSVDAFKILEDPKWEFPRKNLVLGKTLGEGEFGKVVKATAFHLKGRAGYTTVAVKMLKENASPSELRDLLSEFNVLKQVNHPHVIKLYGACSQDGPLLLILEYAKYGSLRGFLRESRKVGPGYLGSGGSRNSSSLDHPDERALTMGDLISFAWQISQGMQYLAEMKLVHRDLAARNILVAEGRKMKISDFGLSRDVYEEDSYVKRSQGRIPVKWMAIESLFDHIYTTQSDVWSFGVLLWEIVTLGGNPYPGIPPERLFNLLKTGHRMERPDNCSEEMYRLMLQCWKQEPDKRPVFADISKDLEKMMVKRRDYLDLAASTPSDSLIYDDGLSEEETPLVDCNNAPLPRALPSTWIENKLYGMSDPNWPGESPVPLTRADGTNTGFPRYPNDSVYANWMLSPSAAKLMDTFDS

[7] = target: 456 kinases (of these 395 non-mutant kinases) (Homo sapiens, UniProt P23443); conditions: S6K1; 10 μM
[8] = target: 456 kinases (of these 395 non-mutant kinases) (Homo sapiens, UniProt P27037); conditions: ACVR2A; 10 μM
Chain of 456 kinases (of these 395 non-mutant kinases) (Homo sapiens, UniProt P27037) (P27037 20-513 limits assumed, change not shown): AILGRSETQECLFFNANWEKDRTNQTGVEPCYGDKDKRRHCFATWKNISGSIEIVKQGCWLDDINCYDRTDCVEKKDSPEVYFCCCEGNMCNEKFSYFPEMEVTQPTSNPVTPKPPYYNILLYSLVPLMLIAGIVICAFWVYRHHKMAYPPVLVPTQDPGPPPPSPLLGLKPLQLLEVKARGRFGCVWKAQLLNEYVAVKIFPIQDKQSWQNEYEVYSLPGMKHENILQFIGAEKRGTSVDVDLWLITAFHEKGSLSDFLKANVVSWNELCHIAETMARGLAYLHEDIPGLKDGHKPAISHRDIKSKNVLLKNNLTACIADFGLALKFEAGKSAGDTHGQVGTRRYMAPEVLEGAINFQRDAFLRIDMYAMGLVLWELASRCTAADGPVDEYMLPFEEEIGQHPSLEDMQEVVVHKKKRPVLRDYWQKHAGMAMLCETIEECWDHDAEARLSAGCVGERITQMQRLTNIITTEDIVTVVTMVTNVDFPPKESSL

[9] = target: 456 kinases (of these 395 non-mutant kinases) (Homo sapiens, UniProt P31751); conditions: AKT2; 10 μM
[10] = target: 456 kinases (of these 395 non-mutant kinases) (Homo sapiens, UniProt P36888); conditions: 10 μM
[11] = target: 456 kinases (of these 395 non-mutant kinases) (Homo sapiens, UniProt P36888, D835H); conditions: FLT3(D835H); 10 μM
[12] = target: 456 kinases (of these 395 non-mutant kinases) (Homo sapiens, UniProt P36897); conditions: TGFBR1; 10 μM
Chain of 456 kinases (of these 395 non-mutant kinases) (Homo sapiens, UniProt P36897) (P36897 34-503 limits assumed, stated change not applied): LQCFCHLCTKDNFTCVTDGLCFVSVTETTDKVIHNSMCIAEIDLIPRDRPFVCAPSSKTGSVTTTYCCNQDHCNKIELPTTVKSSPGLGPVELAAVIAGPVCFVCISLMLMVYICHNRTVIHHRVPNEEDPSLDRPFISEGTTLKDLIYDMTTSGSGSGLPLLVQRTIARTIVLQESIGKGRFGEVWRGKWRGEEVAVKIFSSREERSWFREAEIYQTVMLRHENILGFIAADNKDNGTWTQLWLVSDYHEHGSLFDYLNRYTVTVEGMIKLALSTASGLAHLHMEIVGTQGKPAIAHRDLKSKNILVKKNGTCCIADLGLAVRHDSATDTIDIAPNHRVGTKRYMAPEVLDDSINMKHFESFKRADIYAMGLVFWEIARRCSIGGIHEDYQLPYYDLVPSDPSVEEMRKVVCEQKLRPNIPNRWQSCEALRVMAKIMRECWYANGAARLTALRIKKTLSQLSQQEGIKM

[13] = target: 456 kinases (of these 395 non-mutant kinases) (Homo sapiens, UniProt P42336, M1043I); conditions: PIK3CA(M1043I); 10 μM
[14] = target: 456 kinases (of these 395 non-mutant kinases) (Homo sapiens, UniProt P51813); conditions: BMX; 10 μM
[15] = target: 456 kinases (of these 395 non-mutant kinases) (Homo sapiens, UniProt P51955); conditions: NEK2; 10 μM
[16] = target: 456 kinases (of these 395 non-mutant kinases) (Homo sapiens, UniProt P53667); conditions: LIMK1; 10 μM
[17] = target: 456 kinases (of these 395 non-mutant kinases) (Homo sapiens, UniProt P78362); conditions: SRPK2; 10 μM
[18] = target: 456 kinases (of these 395 non-mutant kinases) (Homo sapiens, UniProt Q09013); conditions: DMPK; 10 μM
[19] = target: 456 kinases (of these 395 non-mutant kinases) (Homo sapiens, UniProt Q13188); conditions: MST2; 10 μM
[20] = target: 456 kinases (of these 395 non-mutant kinases) (Homo sapiens, UniProt Q13464); conditions: ROCK1; 10 μM
Chain of 456 kinases (of these 395 non-mutant kinases) (Homo sapiens, UniProt Q13464) (Q13464 2-1354 limits assumed, change not shown): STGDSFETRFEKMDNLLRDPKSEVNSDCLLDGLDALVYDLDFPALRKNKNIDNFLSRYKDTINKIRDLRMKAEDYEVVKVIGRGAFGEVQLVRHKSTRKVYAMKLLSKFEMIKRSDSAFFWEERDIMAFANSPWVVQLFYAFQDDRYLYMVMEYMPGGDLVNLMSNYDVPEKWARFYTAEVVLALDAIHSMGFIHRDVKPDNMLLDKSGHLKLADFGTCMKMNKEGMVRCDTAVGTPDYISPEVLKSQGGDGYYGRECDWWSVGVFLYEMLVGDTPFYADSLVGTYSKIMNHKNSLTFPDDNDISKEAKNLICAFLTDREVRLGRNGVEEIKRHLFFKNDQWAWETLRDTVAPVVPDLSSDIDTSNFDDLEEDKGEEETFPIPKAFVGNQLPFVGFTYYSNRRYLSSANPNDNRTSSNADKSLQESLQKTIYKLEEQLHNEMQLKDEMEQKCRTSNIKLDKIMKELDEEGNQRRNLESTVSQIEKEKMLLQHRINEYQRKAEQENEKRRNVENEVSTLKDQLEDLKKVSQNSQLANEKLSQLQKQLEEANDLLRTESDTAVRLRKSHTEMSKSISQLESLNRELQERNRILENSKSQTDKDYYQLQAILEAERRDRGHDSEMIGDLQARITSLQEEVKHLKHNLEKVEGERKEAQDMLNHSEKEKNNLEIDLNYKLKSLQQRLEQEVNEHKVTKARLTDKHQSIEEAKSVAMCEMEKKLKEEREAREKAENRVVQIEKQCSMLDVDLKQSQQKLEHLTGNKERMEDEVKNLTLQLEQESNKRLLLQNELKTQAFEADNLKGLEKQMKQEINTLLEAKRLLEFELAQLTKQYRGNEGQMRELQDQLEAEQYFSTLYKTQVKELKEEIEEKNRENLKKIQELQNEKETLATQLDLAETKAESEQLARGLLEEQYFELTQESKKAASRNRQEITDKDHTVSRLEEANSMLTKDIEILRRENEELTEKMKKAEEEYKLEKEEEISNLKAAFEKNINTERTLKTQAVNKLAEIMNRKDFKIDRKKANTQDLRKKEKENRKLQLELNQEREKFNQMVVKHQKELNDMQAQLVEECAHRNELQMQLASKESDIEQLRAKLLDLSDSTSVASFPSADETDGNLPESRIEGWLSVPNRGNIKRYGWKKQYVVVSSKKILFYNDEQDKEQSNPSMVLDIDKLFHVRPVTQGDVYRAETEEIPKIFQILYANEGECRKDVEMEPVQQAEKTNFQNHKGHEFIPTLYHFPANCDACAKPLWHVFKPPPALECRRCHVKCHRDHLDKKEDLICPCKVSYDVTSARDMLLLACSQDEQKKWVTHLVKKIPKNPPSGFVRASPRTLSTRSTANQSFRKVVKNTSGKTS

[21] = target: 456 kinases (of these 395 non-mutant kinases) (Homo sapiens, UniProt Q14004); conditions: CDC2L5; 10 μM
[22] = target: 456 kinases (of these 395 non-mutant kinases) (Homo sapiens, UniProt Q15208); conditions: NDR1; 10 μM
Chain of 456 kinases (of these 395 non-mutant kinases) (Homo sapiens, UniProt Q15208) (Q15208 2-465 limits assumed, change not shown): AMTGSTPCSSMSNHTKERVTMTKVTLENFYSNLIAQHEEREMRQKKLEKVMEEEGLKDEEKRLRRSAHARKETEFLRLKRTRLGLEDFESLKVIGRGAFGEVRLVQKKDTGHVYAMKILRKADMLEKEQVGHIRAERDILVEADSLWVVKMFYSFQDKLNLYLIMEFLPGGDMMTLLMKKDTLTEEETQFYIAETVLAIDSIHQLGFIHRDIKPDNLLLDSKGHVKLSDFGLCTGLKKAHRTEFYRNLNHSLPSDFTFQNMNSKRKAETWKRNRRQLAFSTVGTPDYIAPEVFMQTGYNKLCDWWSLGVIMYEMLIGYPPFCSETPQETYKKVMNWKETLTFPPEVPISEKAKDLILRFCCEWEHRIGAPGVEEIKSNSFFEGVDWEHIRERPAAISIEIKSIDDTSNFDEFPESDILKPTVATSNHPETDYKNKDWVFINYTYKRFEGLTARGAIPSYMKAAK

[23] = target: 456 kinases (of these 395 non-mutant kinases) (Homo sapiens, UniProt Q15569); conditions: TESK1; 10 μM
[24] = target: 456 kinases (of these 395 non-mutant kinases) (Homo sapiens, UniProt Q16512); conditions: PKN1; 10 μM
[25] = target: 456 kinases (of these 395 non-mutant kinases) (Homo sapiens, UniProt Q5S007); conditions: LRRK2; 10 μM
[26] = target: 456 kinases (of these 395 non-mutant kinases) (Homo sapiens, UniProt Q8N5S9); conditions: CAMKK1; 10 μM
[27] = target: 456 kinases (of these 395 non-mutant kinases) (Homo sapiens, UniProt Q8TF76); conditions: HASPIN; 10 μM
[28] = target: 456 kinases (of these 395 non-mutant kinases) (Homo sapiens, UniProt Q96RR4); conditions: CAMKK2; 10 μM
Chain of 456 kinases (of these 395 non-mutant kinases) (Homo sapiens, UniProt Q96RR4) (Q96RR4 2-588 limits assumed, change not shown): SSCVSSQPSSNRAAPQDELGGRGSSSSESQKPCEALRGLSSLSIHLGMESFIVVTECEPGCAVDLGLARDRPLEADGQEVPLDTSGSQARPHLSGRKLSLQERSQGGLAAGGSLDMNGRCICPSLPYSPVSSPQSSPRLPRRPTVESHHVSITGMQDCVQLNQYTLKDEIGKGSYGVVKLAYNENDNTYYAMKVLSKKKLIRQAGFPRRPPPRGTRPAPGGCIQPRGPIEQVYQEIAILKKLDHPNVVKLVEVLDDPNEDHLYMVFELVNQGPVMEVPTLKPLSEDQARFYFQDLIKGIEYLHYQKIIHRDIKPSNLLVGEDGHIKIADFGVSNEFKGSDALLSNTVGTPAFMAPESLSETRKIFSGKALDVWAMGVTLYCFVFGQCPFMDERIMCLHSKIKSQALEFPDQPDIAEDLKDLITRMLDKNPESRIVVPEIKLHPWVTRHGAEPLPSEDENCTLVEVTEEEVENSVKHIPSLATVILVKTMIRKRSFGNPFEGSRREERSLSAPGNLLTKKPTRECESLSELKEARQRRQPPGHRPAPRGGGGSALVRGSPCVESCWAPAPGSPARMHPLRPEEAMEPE

[29] = target: 456 kinases (of these 395 non-mutant kinases) (Homo sapiens, UniProt Q9H2K8); conditions: TAOK3; 10 μM
[30] = target: 456 kinases (of these 395 non-mutant kinases) (Homo sapiens, UniProt Q9UBF8); conditions: PIK4CB; 10 μM
[31] = target: 456 kinases (of these 395 non-mutant kinases) (Homo sapiens, UniProt Q9UHD2); conditions: TBK1; 10 μM
[32] = target: 456 kinases (of these 395 non-mutant kinases) (Homo sapiens, UniProt Q9Y2K2); conditions: QSK; 10 μM

CCc1ccccc1NC(=O)c1c(C)nsc1Nc1cnc2cc(F)ccc2n1 [Example 20, N-(2-Ethylphenyl)-5-[(6-fluoroquinoxalin-2-yl)amino]-3-methyl-1,2-thiazole-4-carboxamide]
% Ctrl @ 10 μM [1]: 86 % Ctrl
% Ctrl @ 10 μM [2]: 100 % Ctrl
% Ctrl @ 10 μM [3]: 100 % Ctrl
% Ctrl @ 10 μM [4]: 100 % Ctrl
% Ctrl @ 10 μM [5]: 96 % Ctrl
% Ctrl @ 10 μM [6]: 89 % Ctrl
% Ctrl @ 10 μM [7]: 100 % Ctrl
% Ctrl @ 10 μM [8]: 94 % Ctrl
% Ctrl @ 10 μM [9]: 90 % Ctrl
% Ctrl @ 10 μM ([10]; FLT3-autoinhibited): 100 % Ctrl
% Ctrl @ 10 μM ([10]; FLT3): 80 % Ctrl
% Ctrl @ 10 μM [11]: 83 % Ctrl
% Ctrl @ 10 μM [12]: 100 % Ctrl
% Ctrl @ 10 μM [13]: 76 % Ctrl
% Ctrl @ 10 μM [14]: 95 % Ctrl
% Ctrl @ 10 μM [15]: 100 % Ctrl
% Ctrl @ 10 μM [16]: 90 % Ctrl
% Ctrl @ 10 μM [17]: 100 % Ctrl
% Ctrl @ 10 μM [18]: 84 % Ctrl
% Ctrl @ 10 μM [19]: 100 % Ctrl
% Ctrl @ 10 μM [20]: 81 % Ctrl
% Ctrl @ 10 μM [21]: 100 % Ctrl
% Ctrl @ 10 μM [22]: 100 % Ctrl
% Ctrl @ 10 μM [23]: 78 % Ctrl
% Ctrl @ 10 μM [24]: 61 % Ctrl
% Ctrl @ 10 μM [25]: 95 % Ctrl
% Ctrl @ 10 μM [26]: 80 % Ctrl
% Ctrl @ 10 μM [27]: 100 % Ctrl
% Ctrl @ 10 μM [28]: 74 % Ctrl
% Ctrl @ 10 μM [29]: 100 % Ctrl
% Ctrl @ 10 μM [30]: 78 % Ctrl
% Ctrl @ 10 μM [31]: 91 % Ctrl
% Ctrl @ 10 μM [32]: 91 % Ctrl
